Test results reported in US20230255975A1, “METHODS FOR TREATING CANCER WITH COMBINATION THERAPIES” (Celgene Corporation, priority 2020, published 2023).

Key:
Format in all cases: cell-based
AMO1 cells = assay: Apoptosis by Annexin V and Topro staining; conditions: AMO-1 cells
Description: (§1) Flow cytometry: Annexin-V Alexa Fluor 488-conjugated antibody (Thermo Scientific, Waltham, Mass., USA) and To-Pro-3 (Thermo Scientific, Waltham, Mass., USA) were used according to the manufacturer's protocol and processed using Flow Jo software for at least three independent experiments. For cell cycle analysis, cells were stained with Propidium Iodide (PI) staining kit (Abcam, Cambridge, Mass., USA) and analysis was performed on Flow Jo V10 software. Staining of mitotic marker pHH3-Ser^10 was also performed by pHH3-Ser^10 and PI dual staining.
The PLK1 inhibitor BI2536 and Compound 5 were tested for their activity as individual agents and in combination in AMO1 parental and AMO1-PR cell lines. […] Changes in apoptosis were analyzed using the single agent treatments and their combination using Annexin V and Topro staining. […] Changes in Ikaros and pro-survival signaling in these cell lines was analyzed in response to BI2536 and Compound 5 after 24 and 72 hours of treatment (FIG. 5K).

phospho Ser10-histone H3 = phospho Ser10-histone H3 (G2-M marker) flow cytometry; conditions: vehicle 16.5
Description: as §1
(§2) The changes in phospho Ser10-histone H3 which is a specific marker for G2-M phase using flow cytometry were measured. […] Nocodazole synchronizes cells in G2-M phase of cell cycle. At time points 30 minutes, 2 hours and 6 hours post rescue from overnight Nocodazole treatment, PLK1 levels were higher compared to vehicle condition (FIG. 3). Then, due to rescue from cell cycle synchronization post Nocodazole treatment, PLK1 levels normalized. In response to Compound 5 treatment, while Ikaros degradation began to happen after 30 minutes of treatments, downregulation of PLK1 and CDC25C levels was evident at 48 hours post treatment. In response to Nocodazole and Compound 5 combination treatment, the decrease in PLK1 levels was accelerated. Changes in cleaved caspase 3 inversely correlated with PLK1 levels, with an increase in cleaved caspase 3 at 48 and 72 hours post Compound 5 treatment with a decrease in PLK1 levels. Cell cycle studies matched with these time points. […] In case of Nocodazole and Compound 5 combination treatment, an accelerated decrease in G2-M cells and a higher increase in sub-G1 cells was observed.

[1] = test system: BIRC5 (Survivin) in MM1.S cell line; assay: BIRC5 levels in response to Compound 5; conditions: 48 and 72 hours, followed by onset of apoptosis
Description: BIRC5 levels decreased in response to Compound 5 treatment at 48 and 72 hours, followed by an onset of apoptosis in MM1.S cell line (FIG. 23B).

[2] = test system: AMO1 NEK2 shRNA (NEK2 knocked-down) cells; assay: Proliferation assay in NEK2 knocked-down cells
Description: (§3) Proliferation and viability assay. Cell growth curves were determined by monitoring the viability of cells with Trypan blue exclusion on a Vi-Cell-XR (Becton Dickinson, Franklin Lakes, N.J., USA). Cell lines were plated in triplicate in 96-well round-bottom plates with the indicated drug concentrations or knockdown cells. Proliferation assays were performed in triplicate at least three times (n=3) using either the WST-1 tetrazolium salt (Roche Applied Science) reagent used according to the manufacturer's specifications or by (3H)-thymidine incorporation as previously described (Bjorklund et al., Blood Cancer Journal 5, e354, 2015). All data were plotted and analyzed using GraphPad Prism 7 (GraphPad Software, La Jolla, Calif., USA) software, represented as the mean with an error determined as ±s.d.
(§4) To further confirm the synergistic effect, shRNA knockdown was combined with either Compound 5 or Compound 6 treatment. Expression of control and NEK2 shRNA in AMO1 cell lines was induced, followed by exposure of the cells to increasing concentrations of Compound 5 and Compound 6. The results were measured through a proliferation assay.

[3] = test system: PLK1 signaling in MM1.S cells; assay: Immunoblot of PLK1 signaling; conditions: FIG. 2C
Description: Immunoblotting: Immunoblot analysis was performed using WES kits, (Protein Simple, San Jose, Calif., USA) at least two times each (n≥2), where the best representative is shown.
The effects of pomalidomide in isogenic sensitive (EJM) and resistant (EJM-PR) and MM1.S cell lines was analyzed. […] To determine the role of PLK1 in pomalidomide response, EJM and EJM-PR cell lines were treated with pomalidomide and analyzed changes in PLK1 levels and downstream signaling. […] The changes in PLK1 transcript levels were further examined in response to pomalidomide treatment in MM1. […] Confocal microscopy was performed to study changes in PLK1 and CDC25C staining in MM1.S cells and a decrease in PLK1 levels and simultaneous decrease in CDC25C staining in response to pomalidomide and Compound 5 treatments was observed. […] Further analysis of the ChIP-seq datasets of Aiolos confirmed binding of Aiolos on TSS of PLK1 with overlapping transcriptional activation H3K27Ac signature extrapolated from publicly available ChIP-seq datasets in GM12878 cell line (Encode project). Since changes in PLK1 levels are due to decrease in PLK1 transcription in response to antiproliferative compounds, the effects of Aiolos and Ikaros knockdowns on PLK1 levels using MM1.S cells with inducible expression of Aiolos and Ikaros shRNAs were analyzed. Both Aiolos and Ikaros knock down lead to a decrease in PLK1 levels (FIG. 2F), indicating transcriptional regulation of PLK1 by substrates of Cereblon.

AMO1 control shRNA cells = assay: Proliferation assay in control shRNA cells; conditions: Homo sapiens; control shRNA AMO1 cells; read-out: IC50, proliferation
Description: as §3, §4

MM cell lines = assay: Cell cycle analysis (PI staining, flow cytometry) in response to Compound 5; conditions: for sub-G1 population: vehicle 5.02, cell line not named; for G2-M population: vehicle 16.3; for G0-G1 population: vehicle 69.2
Description: as §1, §2

AMO1 cell line = assay: Proliferation assay
Description: (§5) Proliferation and viability assays: Cell growth curves were determined by monitoring the viability of cells with Trypan blue exclusion on a Vi-Cell-XR (Becton Dickinson, Franklin Lakes, N.J., USA). Proliferation assays were performed in triplicate at least three times (n=3) using (3H)-thymidine incorporation. All data were plotted and analyzed using GraphPad Prism 7 (GraphPad Software, La Jolla, Calif., USA) software, represented as the mean with an error determined as ±s.d.
as §5, with “assay.” for “assays:”, “Cell lines” for “Proliferation assays”, “plated” for “performed”, “in 96-well round-bottom plates with the indicated drug concentrations or knockdown cells. […]” for “at least three times (n=3) using (3H)-thymidine incorporation.”

K12PE cell line = assay: Proliferation assay
Description: as §5
as §5, with “assay.” for “assays:”, “Cell lines” for “Proliferation assays”, “plated” for “performed”, “in 96-well round-bottom plates with the indicated drug concentrations or knockdown cells. […]” for “at least three times (n=3) using (3H)-thymidine incorporation.”

[4] = test system: AMO1-PR (pomalidomide resistant) cell line; assay: Proliferation assay
Description: as §5
as §5, with “assay.” for “assays:”, “Cell lines” for “Proliferation assays”, “plated” for “performed”, “in 96-well round-bottom plates with the indicated drug concentrations or knockdown cells. […]” for “at least three times (n=3) using (3H)-thymidine incorporation.”

K12PE-PR cell line = assay: Proliferation assay
Description: as §5
as §5, with “assay.” for “assays:”, “Cell lines” for “Proliferation assays”, “plated” for “performed”, “in 96-well round-bottom plates with the indicated drug concentrations or knockdown cells. […]” for “at least three times (n=3) using (3H)-thymidine incorporation.”

Mc-CAR cell line = assay: Proliferation assay; conditions: McCAR; WT; p-ERK High; read-out: IC50 (μM) Trametinib
Description: as §5, §3

H929 cell line = assay: Proliferation assay; conditions: Homo sapiens, NCI-H929, NRAS G13D, p-ERK Medium, read-out: IC50 (μM) Trametinib
Description: as §5, §3

U266 cell line = assay: Proliferation assay; conditions: Homo sapiens, U-266, BRAF K601N, p-ERK High, read-out: IC50 (μM) Trametinib
Description: as §5

KMM-1 cell line = assay: Proliferation assay; conditions: NRAS G13D, p-ERK High, read-out: IC50 (μM) Trametinib
Description: as §5

MOLP-8 cell line = assay: Proliferation assay; conditions: Homo sapiens, KRAS K180del, NRAS p.Q61L, p-ERK High, read-out: IC50 (μM) Trametinib
Description: as §5

KARPAS-620 cell line = assay: Proliferation assay; conditions: p-ERK High, read-out: IC50 (μM) Trametinib
Description: as §5

KMS-20 cell line = assay: Proliferation assay; conditions: KRAS G12S, p-ERK High, read-out: IC50 (μM) Trametinib
Description: as §5

[5] = test system: FOXM1 in K12PE-PR cell line; assay: FOXM1 expression after BIRC5 inhibition; conditions: FIG. 26B
Excerpt: (§6) Inhibition of BIRC5 by YM155 also downregulates FOXM1 and pro-survival signaling.

[6] = test system: FOXM1 in AMO1-PR cell line; assay: FOXM1 expression after BIRC5 inhibition; conditions: FIG. 26B
Excerpt: as §6

Q: What does the source list for `O=C1CC[C@H](N2Cc3c(OCc4ccc(CN5CCOCC5)cc4)cccc3C2=O)C(=O)N1` [Compound 5, (S)-3-(4-((4-(morpholinomethyl)benzyl)oxy)-1-oxoisoindolin-2-yl)piperidine-2,6-dione]?
A: late apoptosis (AMO1 cells; vehicle 2.24%): 3.07%; early apoptosis (AMO1 cells; vehicle 2.69%): 4.86%; levels of phospho Ser10-histone H3 (phospho Ser10-histone H3; 10 nM): 9.3; levels of phospho Ser10-histone H3 (phospho Ser10-histone H3; 30 nM): 6.37; levels of phospho Ser10-histone H3 (phospho Ser10-histone H3; 100 nM): 4.53; BIRC5 levels [1]: decreased; IC50 ([2]; Homo sapiens, NEK2 knocked-down AMO1 cells): 18.7 nM; Increase of activity by NEK2 knockdown in comparison to control shRNA cell line ([2]; IC50 control cells vs NEK2 knocked-down cells): 5 fold; Dose giving decrease in PLK1 levels and downstream signaling relative to pomalidomide [3]: ten times lower dose; PLK1 signaling ([3]; MMS.1 cells, increasing concentrations): dose dependent decrease; IC50 (AMO1 control shRNA cells): 105 nM; sub-G1 population (MM cell lines; 10 nM): 4.98; G2-M population (MM cell lines; 10 nM): 12.3; G0-G1 population (MM cell lines; 10 nM): 75.8; sub-G1 population (MM cell lines; 30 nM): 11.3; G2-M population (MM cell lines; 30 nM): 6.94; G0-G1 population (MM cell lines; 30 nM): 78.3; sub-G1 population (MM cell lines; 100 nM): 13.9; G2-M population (MM cell lines; 100 nM): 6.27; G0-G1 population (MM cell lines; 100 nM): 75.1; Synergy (Calcusyn) with NEK2 inhibitors (JH295 and rac-CCT 250863) on proliferation (AMO1 cell line; AMO1, NEK2 inhibitor 0.016-10 μM): strong synergy; Combination analysis (Calcusyn) with YM155 on proliferation (AMO1 cell line; AMO1, in combination with YM155): synergistic activity; Synergy with trametinib on proliferation (AMO1 cell line; AMO1, in combination with trametinib): strong synergy; Synergy analysis (Calcusyn) of combination with JQ1 on proliferation (K12PE cell line; K12PE cells, in combination with JQ1): synergistic; Synergy (Calcusyn) with NEK2 inhibitors (JH295 and rac-CCT 250863) on proliferation ([4]; NEK2 inhibitor 0.016-10 μM): strong synergy; Combination analysis (Calcusyn) with YM155 on proliferation ([4]; in combination with YM155): synergistic activity; Synergy with trametinib on proliferation ([4]; in combination with trametinib): strong synergy; Synergy of combination with JQ1 on proliferation (K12PE-PR cell line; Pom resistant K12PE-PR, in combination with JQ1): synergistically decreased proliferation

Q: For `CC(=O)Nc1cccc(-n2c(=O)n(C3CC3)c(=O)c3c(Nc4ccc(I)cc4F)n(C)c(=O)c(C)c32)c1` [Trametinib], which IC50 (Mc-CAR cell line) is on record?
A: 0.0031 µM

Q: And the IC50 (H929 cell line)?
A: 0.00328 µM

Q: And the IC50 (U266 cell line)?
A: 0.000353 µM

Q: And the IC50 (KMM-1 cell line)?
A: 0.00169 µM

Q: And the IC50 (MOLP-8 cell line)?
A: 0.0117 µM

Q: What about the IC50 (KARPAS-620 cell line) of the same compound?
A: 0.07 nM

Q: And the IC50 (KMS-20 cell line)?
A: 0.00222 µM

Q: And the IC50 (AMO1 cell line; Homo sapiens, Amo1, KRAS146T, p-ERK High, read-out: IC50 (μM) Trametinib)?
A: 0.0012 µM

Q: How did the FOXM1 expression [5] turn out when `COCCn1c2c([n+](Cc3cnccn3)c1C)C(=O)c1ccccc1C2=O.[Br-]` [YM155, 1-(2-methoxyethyl)-2-methyl-4,9-dioxo-3-(pyrazin-2-ylmethyl)-4,9-dihydro-1H-naphtho[2,3-d]imidazol-3-ium bromide] was run?
A: downregulated FOXM1 expression in a dose dependent manner

Q: What about the FOXM1 expression [6] of the same compound?
A: downregulated FOXM1 expression in a dose dependent manner

Q: What about the EC50 (AMO1 cell line; Homo sapiens, AMO1, BIRC5 inhibitor) of the same compound?
A: 1.09 nM

Q: What about the EC50 (K12PE cell line; K12PE, BIRC5 inhibitor) of the same compound?
A: 1.47 nM

Q: What about the EC50 ([4]; BIRC5 inhibitor) of the same compound?
A: 0.12 nM

Q: What about the EC50 (K12PE-PR cell line; K12PE-PR, BIRC5 inhibitor) of the same compound?
A: 1.07 nM
